Reference: PMC13253105, “Chemical inhibition of a CBASS anti-bacteriophage defense” (iScience, 2026)
Like-named read-outs stand apart in the source and are kept apart here. Where a SMILES comes first, the peptide text is derived from it. The star is where a group is joined. Cbz = O=C(OCc1ccccc1)*; Bn = c1ccc(C*)cc1

Columns and labels:
[1] = system: PsCap5 in E. coli BL21 (DE3) cells; format: cell-based
Method: The same E. coli BL21 (DE3) cells carrying the PsCap5 expression plasmid from above were grown in LB medium with 50 μg/mL kanamycin at 37°C with 220 rpm shaking to an OD600 of ∼0.6 (1 cm pathlength). […] The bacterial cultures were then serially diluted from 10-1 to 10−6, and 5 μL of each was spotted onto LB agar petri dishes supplemented with kanamycin. After overnight incubation, the plates were photographed and colonies formed by viable cells were counted.

LlCap5 = LlCap5 (Lactococcus cremoris, UniProt A0A1E7G0A2); assay: biochemical; set-up: species or system Lactococcus lactis
PsCap5 = PsCap5 (Pseudomonas syringae pv. actinidiae, UniProt A0A2P0QGK5); assay: biochemical; conditions: for inhibition of PsCap5 in rescreening of the compound library: normalized DNA band intensity, threshold 0.25
DpnI = DpnI (Streptococcus pneumoniae serotype 4, UniProt P0A459); format: biochemical; conditions: 1 μL 100 μM inhibitor 20 in 10 μL buffer
Cas9 = Cas9 (Streptococcus pyogenes serotype M1, UniProt Q99ZW2); format: biochemical; conditions: inhibitor 20 (100 µM)
Sequence of Cas9 (Q99ZW2 whole entry, looked up): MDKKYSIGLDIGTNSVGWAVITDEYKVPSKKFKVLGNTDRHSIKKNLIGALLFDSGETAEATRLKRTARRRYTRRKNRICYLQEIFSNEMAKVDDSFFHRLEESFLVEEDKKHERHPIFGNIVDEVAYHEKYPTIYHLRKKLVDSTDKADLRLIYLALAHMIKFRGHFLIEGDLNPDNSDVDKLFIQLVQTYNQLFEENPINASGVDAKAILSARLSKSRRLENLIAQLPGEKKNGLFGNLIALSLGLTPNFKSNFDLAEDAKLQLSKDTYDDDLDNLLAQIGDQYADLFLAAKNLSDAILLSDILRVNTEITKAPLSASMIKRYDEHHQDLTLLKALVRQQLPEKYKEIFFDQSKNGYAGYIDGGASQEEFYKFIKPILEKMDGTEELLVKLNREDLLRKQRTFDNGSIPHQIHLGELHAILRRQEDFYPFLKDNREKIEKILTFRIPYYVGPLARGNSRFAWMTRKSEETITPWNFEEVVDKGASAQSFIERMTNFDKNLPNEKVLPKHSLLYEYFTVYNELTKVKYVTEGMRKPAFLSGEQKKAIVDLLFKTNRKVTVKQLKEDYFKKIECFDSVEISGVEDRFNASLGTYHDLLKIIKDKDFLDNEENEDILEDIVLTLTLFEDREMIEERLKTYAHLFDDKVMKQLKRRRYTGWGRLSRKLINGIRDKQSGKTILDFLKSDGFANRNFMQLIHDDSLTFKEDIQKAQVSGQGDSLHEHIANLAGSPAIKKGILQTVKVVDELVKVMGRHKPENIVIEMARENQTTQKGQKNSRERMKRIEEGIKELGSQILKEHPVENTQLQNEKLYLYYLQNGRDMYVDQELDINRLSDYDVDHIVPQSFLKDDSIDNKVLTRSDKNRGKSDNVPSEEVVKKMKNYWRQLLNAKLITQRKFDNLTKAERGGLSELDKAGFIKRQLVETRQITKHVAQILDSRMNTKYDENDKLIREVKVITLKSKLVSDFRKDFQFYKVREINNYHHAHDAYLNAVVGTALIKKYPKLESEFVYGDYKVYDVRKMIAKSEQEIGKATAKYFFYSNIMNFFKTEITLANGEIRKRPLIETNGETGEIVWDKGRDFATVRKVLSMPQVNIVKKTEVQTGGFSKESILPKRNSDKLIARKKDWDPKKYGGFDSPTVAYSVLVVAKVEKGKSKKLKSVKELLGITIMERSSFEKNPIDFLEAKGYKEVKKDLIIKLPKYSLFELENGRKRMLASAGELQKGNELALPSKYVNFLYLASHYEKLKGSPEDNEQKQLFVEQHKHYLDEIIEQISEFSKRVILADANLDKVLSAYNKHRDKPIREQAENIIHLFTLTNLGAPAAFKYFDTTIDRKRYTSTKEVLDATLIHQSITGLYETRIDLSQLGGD

Sequence of PsCap5 (A0A2P0QGK5 10-397 limits assumed): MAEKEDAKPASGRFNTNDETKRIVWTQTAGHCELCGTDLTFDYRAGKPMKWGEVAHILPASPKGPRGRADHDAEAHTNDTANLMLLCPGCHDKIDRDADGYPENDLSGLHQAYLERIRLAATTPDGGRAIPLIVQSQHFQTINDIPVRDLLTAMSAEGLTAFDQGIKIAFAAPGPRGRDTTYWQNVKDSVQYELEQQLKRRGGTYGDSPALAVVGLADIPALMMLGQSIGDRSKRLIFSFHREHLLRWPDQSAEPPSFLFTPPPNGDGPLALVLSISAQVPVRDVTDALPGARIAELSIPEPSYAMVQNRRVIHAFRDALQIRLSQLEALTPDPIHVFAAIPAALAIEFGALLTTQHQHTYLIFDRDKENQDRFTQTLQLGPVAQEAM
Sequence of LlCap5 (A0A1E7G0A2 1-385): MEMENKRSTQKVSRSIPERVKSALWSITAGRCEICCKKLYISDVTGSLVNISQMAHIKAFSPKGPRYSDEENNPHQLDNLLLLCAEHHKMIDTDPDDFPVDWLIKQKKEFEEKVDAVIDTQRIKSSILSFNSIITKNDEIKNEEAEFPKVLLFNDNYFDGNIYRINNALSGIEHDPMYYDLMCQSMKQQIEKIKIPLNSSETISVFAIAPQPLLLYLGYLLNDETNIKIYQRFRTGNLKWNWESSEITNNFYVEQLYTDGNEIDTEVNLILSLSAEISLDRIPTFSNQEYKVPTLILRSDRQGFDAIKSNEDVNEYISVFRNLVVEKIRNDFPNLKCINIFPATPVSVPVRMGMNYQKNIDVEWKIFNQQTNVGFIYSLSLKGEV
Sequence of DpnI (P0A459 whole entry, looked up): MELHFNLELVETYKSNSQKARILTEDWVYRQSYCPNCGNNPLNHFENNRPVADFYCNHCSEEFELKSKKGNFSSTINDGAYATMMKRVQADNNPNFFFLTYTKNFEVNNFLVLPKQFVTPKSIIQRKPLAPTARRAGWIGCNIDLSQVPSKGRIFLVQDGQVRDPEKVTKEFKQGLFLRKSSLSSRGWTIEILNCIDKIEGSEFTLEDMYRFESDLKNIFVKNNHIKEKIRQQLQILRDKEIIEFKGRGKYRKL

Compound	IC50 (LlCap5)	inhibition of PsCap5 in rescreening of the compound library (PsCap5)	IC50 (PsCap5)	further results
3′,2′-cGAMP [reference compound]	–	–	–	bacterial growth of E. coli carrying PsCap5 plasmid after extrinsic addition of activating ligand [1]: severe restriction of bacterial growth
NS(=O)(=O)c1ccc(CCNC(=O)CCCn2c(SCc3cc(=O)n4cc(Br)ccc4n3)nc3ccsc3c2=O)cc1 [Compound 2]	230 ± 10 µM	did not noticeably inhibit PsCap5	–	–
NS(=O)(=O)c1ccc(CCNC(=O)CSc2nc3ccccc3c(=O)n2Cn2c(SCC(=O)NCCc3ccc(S(N)(=O)=O)cc3)nc3ccccc3c2=O)cc1 [Compound 4]	–	–	–	rescue of E. coli from cGAMP-Cap5-induced toxicity [1]: failed to rescue; inhibition of LlCap5 in biochemical screening (LlCap5; normalized DNA band intensity, threshold for activity 0.4): inactive against LlCap5; IC50 (PsCap5; read-out: IC50 against PsCap5, 50 nM PsCap5, 10 nM 3′,2′-cGAMP, 37°C 15 min, ±S.E.M. of biological triplicates): 11 ± 1 µM
O=C(CCN1C(=O)c2ccccc2C1=O)NCCCCCCNC(=O)CCN1C(=O)c2ccccc2C1=O [Compound 19]	> 100 µM	did not noticeably inhibit PsCap5	–	–
Cc1ccc(CNC(=O)c2ccc(Cn3c(=O)c4ccccc4n(CC(=O)NCc4ccco4)c3=O)cc2)cc1 [Compound 20]	120 ± 60 µM	–	24 ± 8 µM	recovery of viable cells (bacterial population) ([1]; 0.33 mM compound 20, 0.2 mM 3′,2′-cGAMP, 37°C 3 h): ~100 fold; inhibition of DpnI (DpnI): failed to inhibit; inhibition of Cas9 (Cas9): failed to inhibit Cas9
COC(=O)C(NC(=O)C(Cc1ccc(OCc2ccccc2)cc1)NC(=O)C(Cc1ccccc1)NC(=O)CNC(=O)OCc1ccccc1)C(C)O (stereo not shown) [Compound 22] (Cbz-GFY(Bn)T-OMe; configuration not given here)	58 ± 16 µM	did not noticeably inhibit PsCap5	–	–
Cn1c(=O)[nH]c(=O)c2c1nc(SCCSc1nc3c(c(=O)[nH]c(=O)n3C)n1CCc1ccccc1)n2CCc1ccccc1 [Compound 36]	140 ± 20 µM	–	100 ± 20 µM	–
NC(=O)[C@H](Cc1ccc(O)cc1)NC(=O)[C@H](CCCCNC(=O)OCc1ccccc1)NC(=O)OCc1ccccc1 [Compound 37]	260 ± 70 µM	–	150 ± 40 µM	–
